Experimental data: the NIST ThermoML archive (doi:10.1016/j.jct.2018.05.027)
± gives the expanded uncertainty stated by the source.

Assay: xn = mol fraction of the nth substance listed
Conditions: Liquid, Vibrating wire viscometry

CCC(C)O (centres undefined) [butan-2-ol] + CC(C)CC(C)(C)C
viscosity [mPa·s]
Conditions | x1 = 0.2999 | x1 = 0.5001 | x1 = 0.7996 | x1 = 1
293.15 K, 100 kPa | 0.6047 ± 0.011 | 0.7922 ± 0.014 | 1.673 ± 0.027 | 3.767 ± 0.06
293.15 K, 1000 kPa | 0.609 ± 0.011 | 0.797 ± 0.014 | 1.707 ± 0.028 | 3.813 ± 0.06
293.15 K, 5000 kPa | 0.6391 ± 0.011 | 0.8463 ± 0.014 | 1.793 ± 0.029 | 3.978 ± 0.063
293.15 K, 10000 kPa | 0.6863 ± 0.012 | 0.8968 ± 0.015 | 1.913 ± 0.031 | 4.235 ± 0.067
293.15 K, 20000 kPa | 0.7692 ± 0.013 | 1 ± 0.017 | 2.14 ± 0.034 | 4.696 ± 0.074
293.15 K, 30000 kPa | 0.8642 ± 0.015 | 1.131 ± 0.019 | 2.395 ± 0.038 | 5.159 ± 0.082
293.15 K, 40000 kPa | 0.9608 ± 0.016 | 1.247 ± 0.021 | 2.683 ± 0.043 | 5.693 ± 0.09
293.15 K, 50000 kPa | 1.065 ± 0.018 | 1.385 ± 0.023 | 2.993 ± 0.048 | 6.274 ± 0.099
293.15 K, 60000 kPa | 1.173 ± 0.019 | 1.541 ± 0.025 | 3.276 ± 0.052 | 6.831 ± 0.11
293.15 K, 70000 kPa | 1.282 ± 0.021 | 1.7 ± 0.028 | 3.645 ± 0.058 | 7.377 ± 0.12
293.15 K, 80000 kPa | 1.395 ± 0.023 | 1.853 ± 0.03 | 3.939 ± 0.062 | 8.056 ± 0.13
293.15 K, 100000 kPa | 1.66 ± 0.027 | 2.169 ± 0.035 | 4.702 ± 0.074 | 9.598 ± 0.15
293.15 K, 120000 kPa | 1.925 ± 0.031 | 2.516 ± 0.04 | 5.445 ± 0.086 | 11.31 ± 0.18
293.15 K, 140000 kPa | 2.24 ± 0.036 | 2.913 ± 0.047 | 6.323 ± 0.1 | 13.38 ± 0.21
298.15 K, 100 kPa | – | – | – | 3.102 ± 0.049
298.15 K, 1000 kPa | – | – | – | 3.123 ± 0.05
298.15 K, 5000 kPa | – | – | – | 3.28 ± 0.052
298.15 K, 10000 kPa | – | – | – | 3.462 ± 0.055
298.15 K, 20000 kPa | – | – | – | 3.873 ± 0.061
298.15 K, 30000 kPa | – | – | – | 4.253 ± 0.067
298.15 K, 40000 kPa | – | – | – | 4.697 ± 0.074
298.15 K, 50000 kPa | – | – | – | 5.142 ± 0.081
298.15 K, 60000 kPa | – | – | – | 5.553 ± 0.088
298.15 K, 70000 kPa | – | – | – | 6.044 ± 0.095
298.15 K, 80000 kPa | – | – | – | 6.544 ± 0.1
298.15 K, 100000 kPa | – | – | – | 7.646 ± 0.12
298.15 K, 120000 kPa | – | – | – | 9.053 ± 0.14
298.15 K, 140000 kPa | – | – | – | 10.43 ± 0.16
313.15 K, 100 kPa | 0.4647 ± 0.0088 | 0.5643 ± 0.01 | 0.9784 ± 0.017 | 1.839 ± 0.03
313.15 K, 1000 kPa | 0.4677 ± 0.0088 | 0.5722 ± 0.01 | 0.9858 ± 0.017 | 1.862 ± 0.03
313.15 K, 5000 kPa | 0.4936 ± 0.0092 | 0.6074 ± 0.011 | 1.043 ± 0.017 | 1.947 ± 0.031
313.15 K, 10000 kPa | 0.5264 ± 0.0097 | 0.6501 ± 0.011 | 1.11 ± 0.018 | 2.041 ± 0.033
313.15 K, 20000 kPa | 0.5924 ± 0.011 | 0.7349 ± 0.013 | 1.253 ± 0.021 | 2.262 ± 0.036
313.15 K, 30000 kPa | 0.6612 ± 0.012 | 0.8188 ± 0.014 | 1.4 ± 0.023 | 2.503 ± 0.04
313.15 K, 40000 kPa | 0.7328 ± 0.013 | 0.9032 ± 0.015 | 1.559 ± 0.025 | 2.734 ± 0.044
313.15 K, 50000 kPa | 0.8134 ± 0.014 | 0.987 ± 0.017 | 1.707 ± 0.028 | 2.99 ± 0.048
313.15 K, 60000 kPa | 0.8859 ± 0.015 | 1.082 ± 0.018 | 1.869 ± 0.03 | 3.237 ± 0.051
313.15 K, 70000 kPa | 0.9597 ± 0.016 | 1.179 ± 0.019 | 2.049 ± 0.033 | 3.558 ± 0.056
313.15 K, 80000 kPa | 1.04 ± 0.017 | 1.272 ± 0.021 | 2.23 ± 0.036 | 3.841 ± 0.061
313.15 K, 100000 kPa | 1.223 ± 0.02 | 1.509 ± 0.025 | 2.621 ± 0.042 | 4.456 ± 0.071
313.15 K, 120000 kPa | 1.414 ± 0.023 | – | – | –
